# Source: the NIST ThermoML archive (doi:10.1021/je7000182)
# ± gives the expanded uncertainty stated by the source.
# Legend:
# [1] = xn = mol fraction of the nth substance listed; details: x2 = 0; for mass density: 101 kPa, Liquid
# [2] = for mass density: 101 kPa, Liquid
structure (smiles),measurement,setting,value
O [water] + CC(C)=O,surface tension liquid-gas,"[1]; 288.15 K, Pendant drop shape",73.49 ± 0.65 mN/m
same,surface tension liquid-gas,"[1]; 298.15 K, Pendant drop shape",71.98 ± 0.64 mN/m
same,surface tension liquid-gas,"[1]; 308.15 K, Pendant drop shape",70.41 ± 0.63 mN/m
same,surface tension liquid-gas,"[1]; 318.15 K, Pendant drop shape",68.78 ± 0.61 mN/m
same,mass density,[1]; 323.15 K,988.01 ± 0.15 kg/m3
same,surface tension liquid-gas,"[1]; 328.15 K, Pendant drop shape",67.09 ± 0.6 mN/m
same,mass density,[1]; 328.15 K,985.69 ± 0.15 kg/m3
CC(C)=O [acetone],surface tension liquid-gas,"[2]; 288.15 K, Pendant drop shape",24.34 ± 0.31 mN/m
same,mass density,[2]; 288.15 K,795.65 ± 0.34 kg/m3
same,mass density,[2]; 293.15 K,790.04 ± 0.34 kg/m3
same,surface tension liquid-gas,"[2]; 298.15 K, Pendant drop shape",23.02 ± 0.31 mN/m
same,mass density,[2]; 298.15 K,784.33 ± 0.35 kg/m3
same,mass density,[2]; 303.15 K,778.57 ± 0.36 kg/m3
same,surface tension liquid-gas,"[2]; 308.15 K, Pendant drop shape",21.72 ± 0.3 mN/m
same,mass density,[2]; 308.15 K,772.76 ± 0.36 kg/m3
same,mass density,[2]; 313.15 K,766.91 ± 0.37 kg/m3
same,surface tension liquid-gas,"[2]; 318.15 K, Pendant drop shape",20.38 ± 0.29 mN/m
same,mass density,[2]; 318.15 K,760.99 ± 0.38 kg/m3
same,mass density,[2]; 323.15 K,755.02 ± 0.39 kg/m3
same,surface tension liquid-gas,"[2]; 328.15 K, Pendant drop shape",19.15 ± 0.29 mN/m
same,mass density,[2]; 328.15 K,748.98 ± 0.39 kg/m3
Cc1ccccc1 [toluene] + CC(C)=O,surface tension liquid-gas,[1]; 288.15 K,28.9 ± 0.6 mN/m
same,mass density,[1]; 288.15 K,871.41 ± 0.25 kg/m3
same,mass density,[1]; 293.15 K,866.77 ± 0.26 kg/m3
same,surface tension liquid-gas,[1]; 298.15 K,27.76 ± 0.59 mN/m
same,mass density,[1]; 298.15 K,862.12 ± 0.26 kg/m3
same,mass density,[1]; 303.15 K,857.46 ± 0.27 kg/m3
same,surface tension liquid-gas,[1]; 308.15 K,26.77 ± 0.57 mN/m
same,mass density,[1]; 308.15 K,852.78 ± 0.27 kg/m3
same,mass density,[1]; 313.15 K,848.08 ± 0.28 kg/m3
same,surface tension liquid-gas,[1]; 318.15 K,25.72 ± 0.55 mN/m
same,mass density,[1]; 318.15 K,843.37 ± 0.29 kg/m3
same,mass density,[1]; 323.15 K,838.64 ± 0.29 kg/m3
same,surface tension liquid-gas,[1]; 328.15 K,24.27 ± 0.53 mN/m
same,mass density,[1]; 328.15 K,833.9 ± 0.3 kg/m3
Cc1ccccc1 [toluene],surface tension liquid-gas,[2]; 288.15 K,28.9 ± 0.6 mN/m
same,mass density,[2]; 288.15 K,871.41 ± 0.25 kg/m3
same,mass density,[2]; 293.15 K,866.77 ± 0.26 kg/m3
same,surface tension liquid-gas,[2]; 298.15 K,27.76 ± 0.59 mN/m
same,mass density,[2]; 298.15 K,862.12 ± 0.26 kg/m3
same,mass density,[2]; 303.15 K,857.46 ± 0.27 kg/m3
same,surface tension liquid-gas,[2]; 308.15 K,26.77 ± 0.57 mN/m
same,mass density,[2]; 308.15 K,852.78 ± 0.27 kg/m3
same,mass density,[2]; 313.15 K,848.08 ± 0.28 kg/m3
same,surface tension liquid-gas,[2]; 318.15 K,25.72 ± 0.55 mN/m
same,mass density,[2]; 318.15 K,843.37 ± 0.29 kg/m3
same,mass density,[2]; 323.15 K,838.64 ± 0.29 kg/m3
same,surface tension liquid-gas,[2]; 328.15 K,24.27 ± 0.53 mN/m
same,mass density,[2]; 328.15 K,833.9 ± 0.3 kg/m3
